Assay results: US6914045B2, “Glycopeptide antibiotics” (Wyeth Holdings Corporation, priority 2001, dated 2005)
In brackets after ≈: the same amount, converted by molar mass.

Experiments:
Assay in all cases: in vitro antibacterial evaluation, MIC by broth dilution
Type in all cases: cell-based
Enterococcus sp. = conditions: broth dilution, 18 hours at 35° C.
Summary of the method: (§1)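 Following National Committee for Clinical Laboratory Standards recommendations (M7-A2), susceptibility was measured by dilution in Muller-Hinton II […]. Bacteria were seeded at 5×10^5 CFU/mL against compound concentrations from 64 down to 0.06 μg/mL.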

Staphylococcus sp. = conditions: broth dilution, 18 hours at 35° C.; for MIC Staphylococcus aureus (ATCC 29213): strain ATCC 29213; for MIC Staphylococcus aureus (GC 1131): strain GC 1131; for MIC Staphylococcus aureus (GC 3051): strain GC 3051; for MIC Staphylococcus aureus (GC 3053): strain GC 3053; for MIC Staphylococcus aureus (GC 4541): strain GC 4541; for MIC Staphylococcus aureus (GC 4542): strain GC 4542; for MIC Staphylococcus aureus-SMITH (GC 4543): strain GC 4543; for MIC Staphylococcus aureus (GC 4544): strain GC 4544; for MIC Staphylococcus aureus (GC 4545): strain GC 4545; for MIC Staphylococcus haemolyticus (GC 4546): strain GC 4546; for MIC Coagulase Negative Staphylococcus (GC 4547): strain GC 4547; for MIC Coagulase Negative Staphylococcus (GC 4548): strain GC 4548; for MIC Coagulase Negative Staphylococcus (GC 4549): strain GC 4549; for MIC Coagulase Negative Staphylococcus (GC 4551): strain GC 4551
Summary of the method: as §1

Streptococcus sp. = conditions: broth dilution, 18 hours at 35° C.
Summary of the method: as §1

Escherichia coli = conditions: 18 hours at 35° C.
Summary of the method: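 Broth dilution in Muller-Hinton II medium per NCCLS standard M7-A2, with an inoculum of 5×10^5 CFU/mL and antibiotic tested over 64-0.06 μg/mL. MIC was taken as the lowest concentration inhibiting visible growth.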

CC(C1CCCCC1)C1NC(=O)CNC(=O)C(CO)NC(=O)C(C(O)C2CNC(=N)N2C2OC(CO)C(O)C(O)C2O)NC(=O)C(C(O)C2CNC(=N)N2)NC(=O)C(C[C@H]2CC[C@@H](O)CC2)NC1=O (stereo partly drawn) [Example 54, Cyclo[3-(syn-4-hydroxycyclohexyl)alanyl-3-(2-ininoimidazolidin-4-yl)seryl-3-(3-hexopyranosyl-2-iminoimidazolidin-4-yl)serylserylglycyl-3-cyclohexyl-2-aminobutanoyl]]
MIC Enterococcus avium (GC 4558) (Enterococcus sp.; Enterococcus avium (GC 4558)): 128 µg/mL (≈ 130 µM) | MIC Enterococcus faecalis (ATCC 29212) (Enterococcus sp.; Enterococcus faecalis (ATCC 29212)): >128 µg/mL | MIC Enterococcus faecalis (GC 4552) (Enterococcus sp.; Enterococcus faecalis (GC 4552)): >128 µg/mL | MIC Enterococcus faecalis (GC 4553) (Enterococcus sp.; Enterococcus faecalis (GC 4553)): >128 µg/mL | MIC Enterococcus faecalis (GC 4554) (Enterococcus sp.; Enterococcus faecalis (GC 4554)): >128 µg/mL | MIC Enterococcus faecalis (GC 6189) (Enterococcus sp.; Enterococcus faecalis (GC 6189)): >128 µg/mL | MIC Enterococcus faecium (GC 2243) (Enterococcus sp.; Enterococcus faecium (GC 2243)): >128 µg/mL | MIC Enterococcus faecium (GC 4556) (Enterococcus sp.; Enterococcus faecium (GC 4556)): >128 µg/mL | MIC Enterococcus faecium (GC 4557) (Enterococcus sp.; Enterococcus faecium (GC 4557)): 128 µg/mL (≈ 130 µM) | MIC Enterococcus faecalis (ATCC 29212) (Enterococcus sp.; strain ATCC 29212): >128 µg/mL | MIC Enterococcus faecalis (GC 2242) (Enterococcus sp.; strain GC 2242): >128 µg/mL | MIC Enterococcus faecium (GC 2243) (Enterococcus sp.; strain GC 2243): >128 µg/mL | MIC Enterococcus faecalis (GC 2691) (Enterococcus sp.; strain GC 2691): >128 µg/mL | MIC Enterococcus faecalis (GC 3059) (Enterococcus sp.; strain GC 3059): >128 µg/mL | MIC Enterococcus faecalis (GC 4552) (Enterococcus sp.; strain GC 4552): >128 µg/mL | MIC Enterococcus faecalis (GC 4553) (Enterococcus sp.; strain GC 4553): >128 µg/mL | MIC Enterococcus faecalis (GC 4554) (Enterococcus sp.; strain GC 4554): >128 µg/mL | MIC Enterococcus faecium (GC 4556) (Enterococcus sp.; strain GC 4556): >128 µg/mL | MIC Enterococcus faecium (GC 4557) (Enterococcus sp.; strain GC 4557): 128 µg/mL (≈ 130 µM) | MIC Enterococcus avium (GC 4558) (Enterococcus sp.; strain GC 4558): 128 µg/mL (≈ 130 µM) | MIC Enterococcus faecalis (GC 6189) (Enterococcus sp.; strain GC 6189): >128 µg/mL | MIC Staphylococcus aureus (ATCC 29213) (Staphylococcus sp.): >128 µg/mL | MIC Staphylococcus aureus (GC 1131) (Staphylococcus sp.): >128 µg/mL | MIC Staphylococcus aureus (GC 3051) (Staphylococcus sp.): >128 µg/mL | MIC Staphylococcus aureus (GC 3053) (Staphylococcus sp.): >128 µg/mL | MIC Staphylococcus aureus (GC 4541) (Staphylococcus sp.): >128 µg/mL | MIC Staphylococcus aureus (GC 4542) (Staphylococcus sp.): >128 µg/mL | MIC Staphylococcus aureus-SMITH (GC 4543) (Staphylococcus sp.): >128 µg/mL | MIC Staphylococcus aureus (GC 4544) (Staphylococcus sp.): >128 µg/mL | MIC Staphylococcus aureus (GC 4545) (Staphylococcus sp.): >128 µg/mL | MIC Staphylococcus haemolyticus (GC 4546) (Staphylococcus sp.): >128 µg/mL | MIC Coagulase Negative Staphylococcus (GC 4547) (Staphylococcus sp.): >128 µg/mL | MIC Coagulase Negative Staphylococcus (GC 4548) (Staphylococcus sp.): >128 µg/mL | MIC Coagulase Negative Staphylococcus (GC 4549) (Staphylococcus sp.): >128 µg/mL | MIC Coagulase Negative Staphylococcus (GC 4551) (Staphylococcus sp.): >128 µg/mL | MIC Streptococcus pneumoniae (ATCC 6301) (Streptococcus sp.; strain ATCC 6301): >128 µg/mL | MIC Streptococcus pneumoniae (GC 1894) (Streptococcus sp.; strain GC 1894): 128 µg/mL (≈ 130 µM) | MIC Streptococcus pyogenes (GC 4563) (Streptococcus sp.; strain GC 4563): >128 µg/mL | MIC Streptococcus agalactiae (GC 4564) (Streptococcus sp.; strain GC 4564): >128 µg/mL | MIC Streptococcus pneumoniae (GC 4565) (Streptococcus sp.; strain GC 4565): >128 µg/mL | MIC Escherichia coli (ATCC 25922) (Escherichia coli; strain ATCC 25922, broth dilution): >128 µg/mL | MIC Escherichia coli (GC 4559) (Escherichia coli; strain GC 4559, broth dilution): >128 µg/mL | MIC Escherichia coli (GC 4560) (Escherichia coli; strain GC 4560, broth dilution): >128 µg/mL

CC(c1ccccc1)C1NC(=O)CNC(=O)C(CO)NC(=O)C(C(O)C2CNC(=N)N2C2OC(CO)C(O)C(O)C2O)NC(=O)C(C(O)C2CNC(=N)N2)NC(=O)C(Cc2ccc(OC3OC(CO)C(OC4OC5COC6(CCCCC6(C)C)OC5C(O)C4O)C(O)C3O)cc2)NC1=O (centres unmarked) [Example 205]
MIC Enterococcus avium (GC 4558) (Enterococcus sp.): 4 µg/mL (≈ 2.85 µM) | MIC Enterococcus faecalis (ATCC 29212) (Enterococcus sp.): 2 µg/mL (≈ 1.43 µM) | MIC Enterococcus faecalis (GC 2242) (Enterococcus sp.): 4 µg/mL (≈ 2.85 µM) | MIC Enterococcus faecalis (GC 2691) (Enterococcus sp.): 4 µg/mL (≈ 2.85 µM) | MIC Enterococcus faecalis (GC 3059) (Enterococcus sp.): 2 µg/mL (≈ 1.43 µM) | MIC Enterococcus faecalis (GC 4552) (Enterococcus sp.): 4 µg/mL (≈ 2.85 µM) | MIC Enterococcus faecalis (GC 4553) (Enterococcus sp.): 2 µg/mL (≈ 1.43 µM) | MIC Enterococcus faecalis (GC 4554) (Enterococcus sp.): 4 µg/mL (≈ 2.85 µM) | MIC Enterococcus faecalis (GC 6189) (Enterococcus sp.): 2 µg/mL (≈ 1.43 µM) | MIC Enterococcus faecium (GC 2243) (Enterococcus sp.): 2 µg/mL (≈ 1.43 µM) | MIC Enterococcus faecium (GC 4556) (Enterococcus sp.): 2 µg/mL (≈ 1.43 µM) | MIC Enterococcus faecium (GC 4557) (Enterococcus sp.): 4 µg/mL (≈ 2.85 µM) | MIC Enterococcus faecalis (ATCC 29212) (Enterococcus sp.; inoculum 5×10^5 CFU/mL, strain ATCC 29212): 2 µg/mL (≈ 1.43 µM) | MIC Enterococcus faecalis (GC 2242) (Enterococcus sp.; inoculum 5×10^5 CFU/mL, strain GC 2242): 4 µg/mL (≈ 2.85 µM) | MIC Enterococcus faecium (GC 2243) (Enterococcus sp.; inoculum 5×10^5 CFU/mL, strain GC 2243): 2 µg/mL (≈ 1.43 µM) | MIC Enterococcus faecalis (GC 2691) (Enterococcus sp.; inoculum 5×10^5 CFU/mL, strain GC 2691): 4 µg/mL (≈ 2.85 µM) | MIC Enterococcus faecalis (GC 3059) (Enterococcus sp.; inoculum 5×10^5 CFU/mL, strain GC 3059): 2 µg/mL (≈ 1.43 µM) | MIC Enterococcus faecalis (GC 4552) (Enterococcus sp.; inoculum 5×10^5 CFU/mL, strain GC 4552): 4 µg/mL (≈ 2.85 µM) | MIC Enterococcus faecalis (GC 4553) (Enterococcus sp.; inoculum 5×10^5 CFU/mL, strain GC 4553): 2 µg/mL (≈ 1.43 µM) | MIC Enterococcus faecalis (GC 4554) (Enterococcus sp.; inoculum 5×10^5 CFU/mL, strain GC 4554): 4 µg/mL (≈ 2.85 µM) | MIC Enterococcus faecium (GC 4556) (Enterococcus sp.; inoculum 5×10^5 CFU/mL, strain GC 4556): 2 µg/mL (≈ 1.43 µM) | MIC Enterococcus faecium (GC 4557) (Enterococcus sp.; inoculum 5×10^5 CFU/mL, strain GC 4557): 4 µg/mL (≈ 2.85 µM) | MIC Enterococcus avium (GC 4558) (Enterococcus sp.; inoculum 5×10^5 CFU/mL, strain GC 4558): 4 µg/mL (≈ 2.85 µM) | MIC Enterococcus faecalis (GC 6189) (Enterococcus sp.; inoculum 5×10^5 CFU/mL, strain GC 6189): 2 µg/mL (≈ 1.43 µM) | MIC Staphylococcus aureus (GC 1131) (Staphylococcus sp.; inoculum 5×10^5 CFU/mL): 2 µg/mL (≈ 1.43 µM) | MIC Staphylococcus aureus (ATCC 29213) (Staphylococcus sp.): 2 µg/mL (≈ 1.43 µM) | MIC Staphylococcus aureus (GC 1131) (Staphylococcus sp.): 2 µg/mL (≈ 1.43 µM) | MIC Staphylococcus aureus (GC 3051) (Staphylococcus sp.): 2 µg/mL (≈ 1.43 µM) | MIC Staphylococcus aureus (GC 3053) (Staphylococcus sp.): 2 µg/mL (≈ 1.43 µM) | MIC Staphylococcus aureus (GC 4541) (Staphylococcus sp.): 2 µg/mL (≈ 1.43 µM) | MIC Staphylococcus aureus (GC 4542) (Staphylococcus sp.): 2 µg/mL (≈ 1.43 µM) | MIC Staphylococcus aureus-SMITH (GC 4543) (Staphylococcus sp.): 2 µg/mL (≈ 1.43 µM) | MIC Staphylococcus aureus (GC 4544) (Staphylococcus sp.): 2 µg/mL (≈ 1.43 µM) | MIC Staphylococcus aureus (GC 4545) (Staphylococcus sp.): 2 µg/mL (≈ 1.43 µM) | MIC Staphylococcus haemolyticus (GC 4546) (Staphylococcus sp.): 2 µg/mL (≈ 1.43 µM) | MIC Coagulase Negative Staphylococcus (GC 4547) (Staphylococcus sp.): 2 µg/mL (≈ 1.43 µM) | MIC Coagulase Negative Staphylococcus (GC 4548) (Staphylococcus sp.): 1 µg/mL (≈ 0.713 µM) | MIC Coagulase Negative Staphylococcus (GC 4549) (Staphylococcus sp.): 1 µg/mL (≈ 0.713 µM) | MIC Coagulase Negative Staphylococcus (GC 4551) (Staphylococcus sp.): 2 µg/mL (≈ 1.43 µM) | MIC Streptococcus agalactiae (GC 4564) (Streptococcus sp.): <0.12 µg/mL | MIC Streptococcus pneumoniae (ATCC 6301) (Streptococcus sp.): <0.12 µg/mL | MIC Streptococcus pneumoniae (GC 1894) (Streptococcus sp.): <0.12 µg/mL | MIC Streptococcus pneumoniae (GC 4565) (Streptococcus sp.): <0.12 µg/mL | MIC Streptococcus pyogenes (GC 4563) (Streptococcus sp.): <0.12 µg/mL | MIC Streptococcus pneumoniae (ATCC 6301) (Streptococcus sp.; inoculum 5×10^5 CFU/mL, strain ATCC 6301): <0.12 µg/mL | MIC Streptococcus pneumoniae (GC 1894) (Streptococcus sp.; inoculum 5×10^5 CFU/mL, strain GC 1894): <0.12 µg/mL | MIC Streptococcus pyogenes (GC 4563) (Streptococcus sp.; inoculum 5×10^5 CFU/mL, strain GC 4563): <0.12 µg/mL | MIC Streptococcus agalactiae (GC 4564) (Streptococcus sp.; inoculum 5×10^5 CFU/mL, strain GC 4564): <0.12 µg/mL | MIC Streptococcus pneumoniae (GC 4565) (Streptococcus sp.; inoculum 5×10^5 CFU/mL, strain GC 4565): <0.12 µg/mL | MIC Escherichia coli (ATCC 25922) (Escherichia coli): 64 µg/mL (≈ 45.6 µM) | MIC Escherichia coli (GC 4559) (Escherichia coli): 128 µg/mL (≈ 91.2 µM) | MIC Escherichia coli (GC 4560) (Escherichia coli): 1 µg/mL (≈ 0.713 µM)
